Structures are written as SMILES. Where only a bound is given, the exact number is not on record here.

Usually IC50 stands for the concentration that gives 50% inhibition.

The subject of data set [1] is MCF7 cells. The experiment in a line: Cell proliferation (MTT) of adherent MCF7 cells. The data set is classed as cell-based, human. Conditions: for concentration at which effect on cell number reached significance: MCF7, MTT, 24 hr, p ≤ 0.02; for concentration required to repress growth by more than 80%: MCF7 adherent population, MTT. The method, then: (§1) Cell proliferation was assessed using an MTT [3-(4,5-dimethylthiazol-2-yl)-2,5-diphenyltetrazolium bromide] assay (Roche, Mannheim, Germany). The number of viable cells growing in a single well on a 96-well microtiter plate was estimated by adding 10 μl of MTT solution (5 mg/ml in phosphate-buffered saline [PBS]). After 4 h of incubation at 37°C, the stain was diluted with 100 μl of dimethyl sulfoxide. The optical densities were quantified at a test wavelength of 570 nm and a reference wavelength of 690 nm on a multiwell spectrophotometer. In some assays, MTS was used as substrate (Promega, Madison, WI), and the absorbance of the product was monitored at 490 nm. Cell enumeration was carried out using a hemocytometer, and viable cells identified by trypan blue exclusion.
Figure 4 Effects of PKCδ inhibitors on human tumor cell spheroid formation. (A) Hs578T and MCF7 were plated under adherent or non-adherent conditions. Tumor spheroids and adherent cells were collected at 96 hr, stained for CD24 and CD44, and analyzed by flow cytometry. (B) Hs578T, MCF7, breast cancer stem cells (BCSC) and pancreatic cancer stem cells (PCSC) were plated in tumor spheroid media, in the presence of rottlerin, BJE6-106, or DMSO (Control). Tumor spheroids were enumerated at 96 hr, and normalized to the number of spheroids in the control cultures (assigned an arbitrary value of 100%). p values for comparison between vehicle and rottlerin or BJE6-106 effects were significant (p≤0.001). Photographs are of representative areas of the culture plates. (C) MCF7 cells were exposed BJE6-106 or to rottlerin at the indicated concentrations. The corresponding equivalent volume of solvent (DMSO) was used as a vehicle control (Vehicle). After 24, 48 and 72 hr of exposure, cell mass was evaluated by MTT assay. Control values were normalized to 100%. p values for comparison between vehicle and rottlerin effects on cell number at 24 hr reached significance at 5 μM, and for BJE6-106 at 0.5 μM (p ≤ 0.02), and were significant for all concentrations tested at 48 and 72 hr time points. (D) Hs578T cells were exposed to vehicle or BJE6-106 (1 μM) for 6, 12, 24, 48 or 96 hr. Viable cells were enumerated and re-plated in media without BJE6-206, and spheroid numbers were quantitated 96 hr later. p values for comparison between vehicle and BJE6-106 effects on spheroid number were significant after 6 hr of exposure (p≤0.02), and remained significant at all time points thereafter. Error bars represent SEM.

The subject of data set [2] is MCF 10A cells. The data set can be described thus: Cell proliferation (MTT) of non-transformed breast epithelial cells. Conditions: for concentration at which effect on MCF 10A cell number reached significance: 48 hr, p < 0.05; for IC50: Homo sapiens, MCF-10A, 72 hr, read-out: IC50 for the parental MCF 10A cells. The data set is classed as cell-based, human. The method, then: as §1
Figure 5 Effects of PKCδ inhibitors on growth and spheroid formation in non-transformed and transformed human breast epithelial cells. MCF 10A cells and cells from the derived tumorigenic line MCF 10C (also called M3), were grown to 80% confluence in 96-well plates and then exposed to rottlerin at concentrations ranging from 1 to 20 μM (A) or to BJE6-106 at concentrations ranging from 0.1 to 20 μM (B). The corresponding equivalent volume of solvent (DMSO) was used as a vehicle control (Vehicle). After 24, 48 and 72 hr of exposure, cell mass was evaluated by MTT assay. Control (vehicle) values were normalized to 100%. Error bars represent SEM. p values for comparison between vehicle and PKCδ inhibitors on MCF 10A cell number only reached significance (p < 0.05) at 48 hr at 20 μM for rottlerin, and at 1 μM for BJE6-106. In contrast, significant effects of the inhibitors on the MCF 10C cells were observed as early as 24 hr for rottlerin (at 5 μM) and for BJE6-106 (at 0.1 μM). (C) MCF 10A and MCF 10C cells were plated at 10,000 cells per well in tumor spheroid media, and spheroid formation was assessed at days 10 and 21. Representative photographs are shown. (D) MCF 10C cells were plated at 10,000 cells per well in tumor spheroid media, in the presence of rottlerin (5 μM), or BJE6-106 (1 μM or 5 μM), or DMSO vehicle (Control). Tumor spheroids were enumerated at 10 days. Representative photographs are shown. (E) Spheroid numbers were normalized to the number of spheroids in the control cultures (assigned an arbitrary value of 100%) and plotted. Error bars represent SEM. p values for comparison between vehicle and rottlerin or BJE6-106 effects on spheroid number were significant (p < 0.001).

Data set [3] can be described thus: Drug-like properties: bioavailability. As to conditions: in vivo delivery.

On to `CC1(C)C=Cc2cc(CCn3c4ccccc4c4ccccc43)cc(C=O)c2O1` [BJE6-106, 6-(2-(9H-carbazol-9-yl)ethyl)-2,2-dimethyl-2H-chromene-8-carbaldehyde], for which, in data set [1], the “concentration at which effect on cell number reached significance” value came out at 0.5 µM and the “concentration required to repress growth by more than 80%” value is > 1 µM. Further, in data set [2], the “concentration at which effect on MCF 10A cell number reached significance” value is 1 µM and the IC50 is > 20 µM. In data set [3], the bioavailability result is reported as “poorly bioavailable”.
On the same counts, the results for `CC(=O)c1c(O)c(C)c(O)c(Cc2c(O)c3c(c(C(=O)/C=C/c4ccccc4)c2O)OC(C)(C)C=C3)c1O` [rottlerin, Rottlerin, reference compound] are 5 µM, > 10 µM, 20 µM, > 20 µM and “readily bioavailable”.

Values taken from article PMC3927586, “Protein kinase C-delta inactivation inhibits the proliferation and survival of cancer stem cells in culture and in vivo” (BMC Cancer, 2014).
